The conditions of assay [1]: dose of 300 mg/kg; cited from earlier work.
The target in assay [2] is T1, 5-HT2C receptor (Sus scrofa, UniProt K7GSR7).
T1 construct: the tissue used is the choroid plexus of the pig; from tissue; host or cells: pig choroid plexus
T1 sequence (K7GSR7 1-457): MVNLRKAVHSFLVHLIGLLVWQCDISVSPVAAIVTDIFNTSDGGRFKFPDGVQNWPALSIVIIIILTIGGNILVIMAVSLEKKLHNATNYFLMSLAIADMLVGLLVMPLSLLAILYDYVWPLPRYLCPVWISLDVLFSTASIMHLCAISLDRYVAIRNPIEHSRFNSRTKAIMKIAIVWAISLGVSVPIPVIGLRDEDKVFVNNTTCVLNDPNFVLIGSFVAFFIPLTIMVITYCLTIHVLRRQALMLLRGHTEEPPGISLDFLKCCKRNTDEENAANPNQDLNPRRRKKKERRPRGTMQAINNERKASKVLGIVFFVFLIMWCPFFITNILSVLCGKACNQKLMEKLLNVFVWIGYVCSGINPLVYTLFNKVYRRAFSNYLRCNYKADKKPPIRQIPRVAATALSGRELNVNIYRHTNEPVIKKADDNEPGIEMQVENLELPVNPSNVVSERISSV
Put plainly: In vitro radioligand binding affinity for 5-HT2C receptor (3H-mesulergine, choroid plexus). The conditions noted are these: test concentration of 10^-7 M, choroid plexus of the pig. On the procedure: (§1) The interaction of the compounds of formula (I) with 5-HT2A and 5-HT2C receptors was assessed in in vitro radioligand binding experiments. In general, a low concentration of a radioligand with a high binding affinity for the receptor is incubated with a sample of a tissue preparation enriched in a particular receptor (1 to 5 mg tissue) in a buffered medium (0.2 to 5 ml). During the incubation, the radioligands bind to the receptor. When equilibrium of binding is reached, the receptor bound radioactivity is separated from the non-bound radioactivity, and the receptor bound activity is counted. The interaction of the test compounds with the receptors is assessed in competition binding experiments. Various concentrations of the test compound are added to the incubating mixture containing the tissue preparation and the radioligand. Binding of the radioligand will be inhibited by the test compound in proportion to its binding affinity and its concentration. The radioligand used for 5-HT2A binding affinity is ^3 H-ketanserin and the tissue used is the frontal cortex of the rat. […] The radioligand used for 5-HT2C binding affinity is ^3 H-mesulergine and the tissue used is the choroid plexus of the pig.

The test system of assay [3] is mCPP (metachlorophenylpiperazine) induced effects. The assay is described as follows: mCPP Test on Rats. The class given is in vivo, rat. The conditions noted are these: pre-test time T of 1 hour, 1 mg/kg mCPP intravenously 15 minutes prior to the test, Open Field Test; for ED40: Rattus norvegicus, iv, read-out: active dose (dose at which 40% of the tested rats showed suppression of the mCPP induced effects, i.e. mCPP-antagonism). On the procedure:
Rats were treated with the test compound at a dose varying between 0.0025 mg/kg and 40 mg/kg body weight at a pre-test time T of 1 hour, and with 1 mg/kg mCPP (metachlorophenylpiperazine), injected intravenously, 15 minutes prior to the test. After pre-test time T elapsed, treated rats were submitted to the "Open Field Test on Rats" as described in Drug. Dev. Res. 18, 119-144 (1989), but using an infra-red light source instead of a Kleverlux® (12 V/20 W) light source. […] Compounds number 1, 2, 4 and 9 were active at a test dose of 2.5 mg/kg or less.

The target of assay [4] is T2, 5-HT2A receptor (Rattus norvegicus, UniProt P14842).
T2 construct: the tissue used is the frontal cortex of the rat; from tissue; host or cells: rat frontal cortex
The assay is described as follows: In vitro radioligand binding affinity for 5-HT2A receptor (3H-ketanserin, frontal cortex). The settings on record: test concentration of 10^-7 M, frontal cortex of the rat. On the procedure:
as §1

Structures can show the parent of a compound that is named as a salt.

T2 sequence (P14842 whole entry): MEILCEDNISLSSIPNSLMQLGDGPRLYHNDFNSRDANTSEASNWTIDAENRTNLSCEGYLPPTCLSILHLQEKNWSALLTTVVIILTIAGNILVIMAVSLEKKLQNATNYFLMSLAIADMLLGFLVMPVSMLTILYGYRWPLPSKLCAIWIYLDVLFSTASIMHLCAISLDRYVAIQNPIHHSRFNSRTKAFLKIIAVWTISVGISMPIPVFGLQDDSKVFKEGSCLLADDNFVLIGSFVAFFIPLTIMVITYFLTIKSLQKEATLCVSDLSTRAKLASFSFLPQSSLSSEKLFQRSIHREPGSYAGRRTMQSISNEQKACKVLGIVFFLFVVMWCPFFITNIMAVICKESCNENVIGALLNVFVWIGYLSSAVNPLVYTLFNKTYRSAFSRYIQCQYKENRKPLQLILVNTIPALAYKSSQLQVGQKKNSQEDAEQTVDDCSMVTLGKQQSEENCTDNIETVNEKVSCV

As for `CNCC1CC2c3ccccc3Cc3ccccc3C2O1.O=C(O)C(=O)O` (racemic) [(±)-3,3a,8,12b-tetrahydro-N-methyl-2H-dibenzo[3,4:6,7]-cyclohepta[1,2-b]furan-2-methanamine oxalic acid], in assay [1], the antidepressant activity entry was “inactive”.
Consider `CN(C)CC1CC2c3ccccc3Oc3ccccc3C2O1` (racemic) [Compound 1, (±)-2,3,3a,12b-tetrahydro-N,N-dimethyldibenzo[bf]furo[2,3-d]oxepin-2-methanamine], for which the inhibition (as a rule, how much of the control response was suppressed) at 0.1 µM in assay [2] is greater than 40%. For the same compound, in assay [3], the ED40 is no more than 2.5 mg/kg.
Turning to `OCCN1CCN(CC2CC3c4ccccc4Cc4ccccc4C3O2)CC1` (racemic) [Compound 3, (±)-4-[(3,3a,8,12b-tetrahydro-2H-dibenzo[3,4:6,7]cyclohepta[1,2-b]furan-2-yl)methyl]-1-piperazineethanol dihydrochloride], the inhibition at 0.1 µM in assay [2] and in assay [4] was greater than 40% each time.
Regarding `CN(C)CC1CC2c3ccccc3Cc3ccccc3C2O1.Cl` (racemic) [Compound 4, (±)-3,3a,8,12b-tetrahydro-N,N-dimethyl-2H-dibenzo[3,4:6,7]cyclohepta[1,2-b]furan-2-methanamine hydrochloride (1:1)], the inhibition at 0.1 µM in assay [2] and in assay [4] was greater than 40% throughout. Further, the ED40 in assay [3] was no more than 2.5 mg/kg.
Consider `CN(C)CC1CC2c3ccccc3Oc3ccccc3C2O1` (stereo not shown) [Compound 2], for which the “inhibition of the 5-HT2C receptor” value in assay [2] is “less than 40%”. Moreover, the “active dose (dose at which 40% of the tested rats showed suppression of the mCPP induced effects, i.e. mCPP-antagonism)” value in assay [3] is given as no more than 2.5 mg/kg.
As for `CN1CCN(CC2CC3c4ccccc4Cc4ccccc4C3O2)CC1` (stereo not shown) [Compound 5], the inhibition at 0.1 µM in assay [2] and in assay [4] was greater than 40% each time.
On to `Clc1cccc(N2CCN(CC3CC4c5ccccc5Cc5ccccc5C4O3)CC2)c1` (stereo not shown) [Compound 6], for which the inhibition at 0.1 µM in assay [2] is greater than 40%.
Still for that read-out and setting: the same measure for `c1ccc(C2CCN(CC3CC4c5ccccc5Cc5ccccc5C4O3)CC2)cc1` (stereo not shown) [Compound 7]: greater than 40%.
Regarding `O=C(c1ccc(F)cc1)C1CCN(CC2CC3c4ccccc4Cc4ccccc4C3O2)CC1` (stereo not shown) [Compound 8], the inhibition at 0.1 µM in assay [2] and in assay [4] was greater than 40% throughout.
For the compound `c1ccc2c(c1)Cc1ccccc1C1OC(CN3CCOCC3)CC21` (stereo not shown) [Compound 9], the inhibition at 0.1 µM in assay [2] and in assay [4] was greater than 40% in each case. Also, the ED40 in assay [3] was no more than 2.5 mg/kg.

Values taken from patent US6057441A, “Substituted tetracyclic tetrahydrofuran derivatives” (Janssen Pharmaceutica, N.V., priority 1996, dated 2000).
